In one assay the target is T1, Nitric oxide synthase 3 (Bos taurus, UniProt P29473).
T1 sequence (P29473 whole entry): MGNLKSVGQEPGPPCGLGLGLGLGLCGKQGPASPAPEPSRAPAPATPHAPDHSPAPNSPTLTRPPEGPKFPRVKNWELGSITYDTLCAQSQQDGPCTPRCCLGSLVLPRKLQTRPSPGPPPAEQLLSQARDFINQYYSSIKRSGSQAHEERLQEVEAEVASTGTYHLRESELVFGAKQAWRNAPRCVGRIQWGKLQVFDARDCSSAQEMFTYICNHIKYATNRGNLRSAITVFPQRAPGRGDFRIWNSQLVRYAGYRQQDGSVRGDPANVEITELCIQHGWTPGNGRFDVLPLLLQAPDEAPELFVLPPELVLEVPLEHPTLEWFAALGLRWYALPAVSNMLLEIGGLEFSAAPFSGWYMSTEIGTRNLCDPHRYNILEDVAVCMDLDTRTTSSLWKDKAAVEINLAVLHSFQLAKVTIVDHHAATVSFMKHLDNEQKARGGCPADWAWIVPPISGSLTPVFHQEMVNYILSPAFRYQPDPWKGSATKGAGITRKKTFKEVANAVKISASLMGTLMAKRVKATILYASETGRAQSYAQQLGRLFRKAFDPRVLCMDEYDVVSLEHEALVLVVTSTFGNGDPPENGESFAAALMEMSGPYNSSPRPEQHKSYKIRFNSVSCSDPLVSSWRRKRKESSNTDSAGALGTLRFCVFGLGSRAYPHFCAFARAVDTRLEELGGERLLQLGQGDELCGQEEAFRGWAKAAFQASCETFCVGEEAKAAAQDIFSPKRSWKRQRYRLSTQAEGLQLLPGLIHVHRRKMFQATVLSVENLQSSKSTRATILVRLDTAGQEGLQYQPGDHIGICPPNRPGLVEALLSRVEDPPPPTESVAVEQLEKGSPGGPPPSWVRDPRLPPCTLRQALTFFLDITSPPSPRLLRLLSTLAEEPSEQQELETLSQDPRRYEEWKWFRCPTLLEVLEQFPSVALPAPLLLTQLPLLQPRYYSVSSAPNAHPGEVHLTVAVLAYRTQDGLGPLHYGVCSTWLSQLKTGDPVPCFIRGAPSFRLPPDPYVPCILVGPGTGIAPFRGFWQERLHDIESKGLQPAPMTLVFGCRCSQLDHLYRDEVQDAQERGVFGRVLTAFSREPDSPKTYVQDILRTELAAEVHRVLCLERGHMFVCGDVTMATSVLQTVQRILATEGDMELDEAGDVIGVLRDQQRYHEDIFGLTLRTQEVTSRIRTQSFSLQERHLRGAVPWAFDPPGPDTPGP

The target in assay [1] is T2, Nitric oxide synthase, inducible (Mus musculus, UniProt P29477).
T2 sequence (P29477 whole entry): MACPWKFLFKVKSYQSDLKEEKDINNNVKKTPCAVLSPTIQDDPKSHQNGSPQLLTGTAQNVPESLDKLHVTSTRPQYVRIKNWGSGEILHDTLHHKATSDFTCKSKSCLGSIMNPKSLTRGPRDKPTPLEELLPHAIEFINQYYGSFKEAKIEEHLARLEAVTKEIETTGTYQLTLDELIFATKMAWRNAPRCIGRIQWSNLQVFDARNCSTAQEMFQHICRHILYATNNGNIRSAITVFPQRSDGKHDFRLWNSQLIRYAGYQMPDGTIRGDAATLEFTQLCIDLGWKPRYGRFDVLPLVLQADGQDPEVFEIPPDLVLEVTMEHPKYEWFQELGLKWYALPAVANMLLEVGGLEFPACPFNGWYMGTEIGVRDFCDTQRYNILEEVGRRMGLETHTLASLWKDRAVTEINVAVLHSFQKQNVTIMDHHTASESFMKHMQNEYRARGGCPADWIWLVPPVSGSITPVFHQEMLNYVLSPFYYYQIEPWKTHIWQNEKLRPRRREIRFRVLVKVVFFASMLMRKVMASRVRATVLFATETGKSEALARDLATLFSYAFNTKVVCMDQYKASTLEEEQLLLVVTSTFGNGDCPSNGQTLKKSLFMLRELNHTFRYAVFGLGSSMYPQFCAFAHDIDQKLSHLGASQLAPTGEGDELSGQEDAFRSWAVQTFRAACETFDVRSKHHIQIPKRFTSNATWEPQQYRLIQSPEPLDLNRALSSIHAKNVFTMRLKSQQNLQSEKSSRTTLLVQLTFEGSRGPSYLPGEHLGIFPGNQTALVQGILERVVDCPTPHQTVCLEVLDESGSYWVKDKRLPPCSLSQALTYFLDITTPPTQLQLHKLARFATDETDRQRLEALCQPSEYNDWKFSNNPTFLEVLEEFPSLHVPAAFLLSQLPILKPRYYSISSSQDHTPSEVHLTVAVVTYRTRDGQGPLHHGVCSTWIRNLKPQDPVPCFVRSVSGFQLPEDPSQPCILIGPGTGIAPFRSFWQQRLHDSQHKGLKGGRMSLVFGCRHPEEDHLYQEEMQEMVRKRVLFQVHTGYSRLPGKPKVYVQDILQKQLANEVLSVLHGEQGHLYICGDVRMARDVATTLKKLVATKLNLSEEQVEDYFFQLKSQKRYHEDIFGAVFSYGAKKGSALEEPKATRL

A further assay concerns the target Nitric oxide synthase 1 (Rattus norvegicus, UniProt P29476).
The nature of assay [2]: Selectivity ratio of Ki(app) for recombinant mouse iNOS to Ki(app) for recombinant rat nNOS.
A short description of assay [3]: Selectivity ratio of Ki(app) for recombinant bovine eNOS to Ki(app) for recombinant rat nNOS.

The structures appear in SMILES notation.

Chain of Nitric oxide synthase 1 (P29476 whole entry): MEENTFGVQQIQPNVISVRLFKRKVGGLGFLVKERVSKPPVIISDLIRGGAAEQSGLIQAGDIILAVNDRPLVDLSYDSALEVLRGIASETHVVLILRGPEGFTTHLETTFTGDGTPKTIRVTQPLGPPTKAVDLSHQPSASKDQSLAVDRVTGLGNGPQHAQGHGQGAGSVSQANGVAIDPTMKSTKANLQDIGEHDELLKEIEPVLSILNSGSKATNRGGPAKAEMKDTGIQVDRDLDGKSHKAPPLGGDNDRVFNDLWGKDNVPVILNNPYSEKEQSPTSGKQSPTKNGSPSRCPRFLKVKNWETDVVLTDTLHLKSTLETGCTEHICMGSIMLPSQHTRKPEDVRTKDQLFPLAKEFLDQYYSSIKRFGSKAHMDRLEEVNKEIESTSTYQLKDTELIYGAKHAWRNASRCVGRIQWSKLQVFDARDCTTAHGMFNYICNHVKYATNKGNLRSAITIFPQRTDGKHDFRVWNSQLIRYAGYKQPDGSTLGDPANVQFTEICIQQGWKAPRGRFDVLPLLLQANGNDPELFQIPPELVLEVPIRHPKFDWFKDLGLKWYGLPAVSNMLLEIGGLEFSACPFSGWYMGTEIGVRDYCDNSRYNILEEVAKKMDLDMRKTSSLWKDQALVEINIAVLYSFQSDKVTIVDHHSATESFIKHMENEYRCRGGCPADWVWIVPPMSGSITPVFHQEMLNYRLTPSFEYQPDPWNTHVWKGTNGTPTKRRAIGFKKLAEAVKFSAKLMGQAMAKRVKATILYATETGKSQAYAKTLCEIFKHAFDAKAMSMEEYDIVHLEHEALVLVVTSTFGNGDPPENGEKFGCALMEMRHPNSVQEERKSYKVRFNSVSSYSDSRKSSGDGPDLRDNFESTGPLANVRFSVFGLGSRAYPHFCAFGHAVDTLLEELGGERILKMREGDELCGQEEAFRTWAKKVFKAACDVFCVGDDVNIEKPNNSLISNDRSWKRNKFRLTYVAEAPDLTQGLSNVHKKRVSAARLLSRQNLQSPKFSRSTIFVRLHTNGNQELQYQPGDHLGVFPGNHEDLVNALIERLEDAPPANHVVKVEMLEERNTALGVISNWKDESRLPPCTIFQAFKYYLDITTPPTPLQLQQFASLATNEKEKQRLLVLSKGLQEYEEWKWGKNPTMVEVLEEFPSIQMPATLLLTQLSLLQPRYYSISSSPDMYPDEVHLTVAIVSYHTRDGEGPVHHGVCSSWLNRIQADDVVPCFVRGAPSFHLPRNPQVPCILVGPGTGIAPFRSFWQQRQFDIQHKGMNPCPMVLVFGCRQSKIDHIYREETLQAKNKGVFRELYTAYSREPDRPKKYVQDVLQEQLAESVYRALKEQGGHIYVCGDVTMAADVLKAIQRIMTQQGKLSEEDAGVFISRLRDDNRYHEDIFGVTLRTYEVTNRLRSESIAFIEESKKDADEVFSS

`NC(=Nc1cccc(OCCOc2cccc(N=C(N)c3cccs3)c2)c1)c1cccs1`: the Ki on Nitric oxide synthase 3 is 13.7 µM; in assay [1], 66.8 µM; on Nitric oxide synthase 1, 0.13 µM.
Regarding `N=C(Nc1cccc(OCCCOc2cccc(NC(=N)c3cccs3)c2)c1)c1cccs1`, the Ki on Nitric oxide synthase 3 was 4 µM; in assay [1], 12.6 µM; on Nitric oxide synthase 1, 0.237 µM. The values for the Ratio Ki(app) in assay [2] and in assay [3] were 53 and 17, respectively.
Consider `N=C(Nc1cccc(OCCOc2cccc(NC(=N)c3cccs3)c2)c1)c1cccs1`, for which the values for the Ratio Ki(app) in assay [2] and in assay [3] were 513 and 105, respectively.
Consider `N=C(Nc1cccc(-c2cccc(NC(=N)c3cccs3)c2)c1)c1cccs1`, for which the results for the Ki (on Nitric oxide synthase 3; in assay [1]; on Nitric oxide synthase 1) were 177 µM, 66.4 µM and 0.787 µM, respectively. The Ratio Ki(app) in assay [2] came to 84; in assay [3] it was 225.
With `NC(=Nc1cccc(Cc2cccc(N=C(N)c3cccs3)c2)c1)c1cccs1`, the Ki at Nitric oxide synthase 3 amounted to 133 µM; in assay [1] it was 79 µM.
Take `N=C(Nc1cccc(CCc2cccc(NC(=N)c3cccs3)c2)c1)c1cccs1`: the Ki was 66 µM at Nitric oxide synthase 3, 104 µM in assay [1] and 0.739 µM at Nitric oxide synthase 1. The Ratio Ki(app) in assay [2] was found to be 141; in assay [3] it was 89.

The term Ki denotes a dissociation constant, usually derived from enzyme kinetics or from competition with a known ligand. A lower Ki goes with tighter binding.

The values are drawn from ChEMBL document CHEMBL3124811, “Potent and selective double-headed thiophene-2-carboximidamide inhibitors of neuronal nitric oxide synthase for the treatment of melanoma” (J Med Chem, 2014).
